Tests used:
Format in all cases: physicochemical
[1] = Short-term physical stability of anhydrous crystal forms (40° C./75% RH, open, 1 day; XRPD)
Source text: In addition to the mesylate crystalline form I, the other anhydrous crystalline forms were stable under high humidity conditions.

[2] = Solid state stability at 60° C. (closed) and 40° C./75% RH (open), XRPD and HPLC purity
Procedure: (closed) and 40° C./75 RH (open) for 14 days, XRPD analysis and purity analysis were performed at various points of time, and solid-state stability was evaluated.
(§1) HPLC analysis was performed by using an Agilent HPLC 1260 series instrument and the HPLC methods used for solubility and stability determinations were shown in Tables 33 and 34, respectively.

[3] = Dynamic vapor sorption (DVS) hygroscopicity
Procedure: The water vapor sorption/desorption data of the samples were collected on a dynamic vapor sorption instrument (proUmid GmbH & Co. KG, Germany). Approximately 50-70 mg of sample was placed in a sample pan previously tared and the weight of the sample was measured accurately.

[4] = IC analysis of residual solid of phosphate crystalline form I (PO4 content, dissociation)
Procedure: IC analysis of the salts was performed by using a Thermo ICS-6000 instrument.

[5] = Solubility analysis in biological solvents (SGF, FaSSIF, FeSSIF) and water, with pH and XRPD of residual solid; conditions: for Solubility: 37° C.
Procedure: as §1

XPRD Results after short-term physical stability [1]: unchanged
Purity in stability evaluation ([2]; 0 d): 98.78 Area %
Solid state stability-14 days ([2]; 60° C./Closed and 40° C./75% RH (Open), 14 days): physically and chemically stable
Purity in stability evaluation ([2]; 7 d-40° C./75% RH): 98.78 Area %
XRPD in stability evaluation ([2]; 7 d-40° C./75% RH): unchanged
Purity in stability evaluation ([2]; 7 d-60° C./capped): 98.78 Area %
XRPD in stability evaluation ([2]; 7 d-60° C./capped): unchanged
Purity in stability evaluation ([2]; 14 d-40° C./75% RH): 98.78 Area %
XRPD in stability evaluation ([2]; 14 d-40° C./75% RH): unchanged
Purity in stability evaluation ([2]; 14 d-60° C./capped): 98.78 Area %
XRPD in stability evaluation ([2]; 14 d-60° C./capped): unchanged
crystalline form after DVS analysis (XRPD) [3]: remained unchanged
hygroscopicity (DVS) [3]: slightly hygroscopic
DVS The weight gains by vapor sorption % ([3]; 80% RH): 1.3%
DVS The weight gains by vapor sorption % ([3]; 90% RH): 1.6%
DVS The weight gains by vapor sorption % ([3]; 90% RH, listed as phosphate crystalline form I): ~1.6%
dissociation of salt in solubility media (IC of residual solids) ([4]; FaSSIF and FeSSIF): dissociated to free base
Dissociation degree ([4]; FaSSIF, 0.5 h): 91%
PO4^3− in residual solid ([4]; FaSSIF, 0.5 h): 0.1 eq.
XPRD Results Dry sample of residual solid ([4]; FaSSIF, 0.5 h): Amorphous
XPRD Results Wet sample of residual solid ([4]; FaSSIF, 0.5 h): Form 1
Dissociation degree ([4]; FaSSIF, 2 h): 97%
PO4^3− in residual solid ([4]; FaSSIF, 2 h): 0.03 eq.
XPRD Results Dry sample of residual solid ([4]; FaSSIF, 2 h): Amorphous
XPRD Results Wet sample of residual solid ([4]; FaSSIF, 2 h): Form 1
Dissociation degree ([4]; FaSSIF, 24 h): >99%
PO4^3− in residual solid ([4]; FaSSIF, 24 h): <0.006 eq.
XPRD Results Dry sample of residual solid ([4]; FaSSIF, 24 h): Form 3
XPRD Results Wet sample of residual solid ([4]; FaSSIF, 24 h): Form 2
Dissociation degree ([4]; FeSSIF, 0.5 h): >99%
PO4^3− in residual solid ([4]; FeSSIF, 0.5 h): <0.006 eq.
XPRD Results Dry sample of residual solid ([4]; FeSSIF, 0.5 h): Amorphous
XPRD Results Wet sample of residual solid ([4]; FeSSIF, 0.5 h): Form 1
Dissociation degree ([4]; FeSSIF, 24 h): 100%
PO4^3− in residual solid ([4]; FeSSIF, 24 h): 0 eq.
XPRD Results Dry sample of residual solid ([4]; FeSSIF, 24 h): Amorphous
XPRD Results Wet sample of residual solid ([4]; FeSSIF, 24 h): Form 1
pH in solubility analysis ([5]; FaSSIF (medium pH 6.5), 0.5 h): 5.7
pH in solubility analysis ([5]; FaSSIF (medium pH 6.5), 2 h): 5.5
pH in solubility analysis ([5]; FaSSIF (medium pH 6.5), 24 h): 5.5
solubility at 24 h ([5]; FaSSIF, 37 °C, pH 6.5, fassif, thermodynamic from solid, 24 h, target 5 mg/mL): 0.022 mg/mL
XRPD of residual solid in solubility analysis ([5]; FaSSIF, 0.5 h): Form 1
Solubility ([5]; FaSSIF, 0.5 h, target 5 mg/mL): 0.057 mg/mL
Solubility ([5]; FaSSIF, 0.5 h, target 5 mg/mL, listed as phosphate crystalline form I): 0.057 mg/mL
XRPD of residual solid in solubility analysis ([5]; FaSSIF, 0.5 h, listed as phosphate crystalline form I): Newform 1
Solubility ([5]; FaSSIF, 2 h, target 5 mg/mL): 0.048 mg/mL
Solubility ([5]; FaSSIF, 2 h, target 5 mg/mL, listed as phosphate crystalline form I): 0.048 mg/mL
XRPD of residual solid in solubility analysis ([5]; FaSSIF, 24 h): Form 2
XRPD of residual solid in solubility analysis ([5]; FaSSIF, 24 h, listed as phosphate crystalline form I): new form 2
pH in solubility analysis ([5]; FeSSIF (medium pH 5.0), 0.5 h): 4.9
pH in solubility analysis ([5]; FeSSIF (medium pH 5.0), 2 h): 4.9
pH in solubility analysis ([5]; FeSSIF (medium pH 5.0), 24 h): 5.0
XRPD of residual solid in solubility analysis ([5]; FeSSIF, 0.5 h): Form 1
Solubility ([5]; FeSSIF, 0.5 h, target 5 mg/mL): 1.029 mg/mL
Solubility ([5]; FeSSIF, 0.5 h, target 5 mg/mL, listed as phosphate crystalline form I): 1.029 mg/mL
XRPD of residual solid in solubility analysis ([5]; FeSSIF, 0.5 h, listed as phosphate crystalline form I): Newform 1
Solubility ([5]; FeSSIF, 2 h, target 5 mg/mL): 1.175 mg/mL
Solubility ([5]; FeSSIF, 2 h, target 5 mg/mL, listed as phosphate crystalline form I): 1.175 mg/mL
XRPD of residual solid in solubility analysis ([5]; FeSSIF, 24 h): Form 1
Solubility ([5]; FeSSIF, 24 h, target 5 mg/mL): 1.948 mg/mL
Solubility ([5]; FeSSIF, 24 h, target 5 mg/mL, listed as phosphate crystalline form I): 1.948 mg/mL
pH in solubility analysis ([5]; SGF (medium pH 1.2), 0.5 h): 1.2
pH in solubility analysis ([5]; SGF (medium pH 1.2), 2 h): 1.4
pH in solubility analysis ([5]; SGF (medium pH 1.2), 24 h): 1.2
Solubility ([5]; SGF, 0.5 h, target 5 mg/mL): <LOD
Solubility ([5]; SGF, 0.5 h, target 5 mg/mL, listed as phosphate crystalline form I): <LOD/<LOD/
Solubility ([5]; SGF, 2 h, target 5 mg/mL): <LOD
Solubility ([5]; SGF, 2 h, target 5 mg/mL, listed as phosphate crystalline form I): <LOD/<LOD/
XRPD of residual solid in solubility analysis ([5]; SGF, 24 h): amorphous
Solubility ([5]; SGF, 24 h, target 5 mg/mL): <LOD
XRPD of residual solid in solubility analysis ([5]; SGF, after 2 h): amorphous
pH in solubility analysis ([5]; water (medium pH 6.6), 0.5 h): 2.8
pH in solubility analysis ([5]; water (medium pH 6.6), 2 h): 2.7
pH in solubility analysis ([5]; water (medium pH 6.6), 24 h): 2.6
Solubility ([5]; water, 0.5 h, target 5 mg/mL): <LOD
Solubility ([5]; water, 0.5 h, target 5 mg/mL, listed as phosphate crystalline form I): <LOD/<LOD/
Solubility ([5]; water, 2 h, target 5 mg/mL): <LOD
Solubility ([5]; water, 2 h, target 5 mg/mL, listed as phosphate crystalline form I): <LOD/<LOD/
Solubility ([5]; water, 24 h, target 5 mg/mL): <LOD
XRPD pattern of the residual solid in water ([5]; water, time not stated): an additional peak at 160 (20)
Structure (SMILES): Cc1c(C#Cc2cnc3ccc(N4CCC(O)CC4)nn23)cccc1C(=O)Nc1cc(Cl)cc(C(F)(F)F)c1 [Phosphate crystalline form I]

From patent publication US20260226060A1, “SALTS AND CRYSTALLINE FORMS OF COMPOUND A, METHODS OF PREPARATION, AND USES THEREOF” (SHENZHEN NEWDEL BIOTECH CO., LTD., priority 2023, published 2026)
